According to US9644005B2, “Didemnin biosynthetic gene cluster in Tistrella mobilis” (King Abdullah University of Science and Technology, priority 2011, dated 2017):

Assays:
[1] = system: HCT-116 human colon carcinoma cell; assay: Cytotoxic activity using HCT-116 human colon carcinoma cell; format: cell-based; settings: compounds purified by semi-preparative HPLC; cell line not restated
[2] = system: herpes simplex virus type 1; settings: DNA and RNA viruses such as herpes simplex virus type 1; cited from earlier work
[3] = system: murine leukemia cells; settings: cited from earlier work
[4] = phase II human clinical trials; cited from earlier work

Compound | concentration at which strong cytotoxic activity was shown [1] [ng/mL] | antiviral activity [2] | activity against murine leukemia cells [3] | toxicity in human subjects [4]
CC[C@H](C)[C@H]1NC(=O)[C@@H](NC(=O)[C@@H](CC(C)C)N(C)C(=O)[C@@H]2CCCN2C(=O)C(C)O)[C@@H](C)OC(=O)[C@H](Cc2ccc(OC)cc2)N(C)C(=O)[C@@H]2CCCN2C(=O)[C@H](CC(C)C)NC(=O)[C@@H](C)C(=O)[C@H](C(C)C)OC(=O)C[C@@H]1O (some centres unmarked) [didemnin B] | 0.074 | strong antiviral agent | strong activity | high toxicity
nordidemnin B | 0.074 |  |  | 
